Results: the NIST ThermoML archive (doi:10.1021/je600567z)
Numbers after ± are expanded uncertainties.

Test: activity coefficient (dimensionless); of the first substance listed, at infinite dilution; xn = mol fraction of the nth substance listed
Settings: Liquid, x1 = 0
[1] = 273.35 K, Relative Headspace Analysis
[2] = 283.15 K, Relative Headspace Analysis
[3] = 363.15 K, circulation equilibrium still
[4] = 371.15 K, circulation equilibrium still
[5] = 333.15 K, Rayleigh distallation
[6] = 343.15 K, Rayleigh distallation
[7] = 353.15 K, circulation equilibrium still
[8] = 293.15 K, Relative Headspace Analysis

SMILES | activity coefficient [1] | activity coefficient [2] | activity coefficient (293.15 K, headspace analysis) | activity coefficient (303.15 K, headspace analysis) | activity coefficient (313.15 K, headspace analysis) | activity coefficient (323.15 K, headspace analysis) | activity coefficient (333.15 K, headspace analysis) | activity coefficient [3] | activity coefficient [4] | activity coefficient [5] | activity coefficient [6] | activity coefficient [7] | activity coefficient [8] | other results
CC(C)CO [2-methyl-1-propanol] + O | 31.6 ± 1.9 | 36.8 ± 2.2 | 44.3 ± 2.7 | 50.3 ± 3 | 54.1 ± 3.2 | 57.6 ± 3.5 | 58.3 ± 3.5 | 54.3 ± 3.3 | 52.2 ± 3.1 | – | – | – | – | activity coefficient (298.15 K, Relative Headspace Analysis): 47.4 ± 2.8
CC(C)(C)O [2-methylpropan-2-ol] + O | – | – | – | 14.4 ± 0.9 | 16.9 ± 1 | – | – | 26.3 ± 1.6 | 27.4 ± 1.6 | 21.8 ± 1.3 | 23.5 ± 1.4 | 25.4 ± 1.5 | – | activity coefficient (299.15 K, headspace analysis): 13.1 ± 0.8; activity coefficient (323.15 K, Rayleigh distallation): 19.9 ± 1.2
CC(C)O [propan-2-ol] + O | – | 5.37 ± 0.32 | – | – | – | – | – | 12.9 ± 0.8 | 13.1 ± 0.8 | 11.8 ± 0.7 | – | 12.5 ± 0.8 | 6.89 ± 0.41 | activity coefficient (308.15 K, Relative Headspace Analysis): 8.84 ± 0.53
CCC(C)O (configuration not stated) [butan-2-ol] + O | 13.7 ± 0.8 | 17.9 ± 1.1 | 22.5 ± 1.4 | 26.8 ± 1.6 | 31.3 ± 1.9 | 33.8 ± 2 | 36.9 ± 2.2 | 40.4 ± 2.4 | 37.8 ± 2.3 | – | 38 ± 2.3 | – | 22.6 ± 1.4 | activity coefficient (303.15 K, inert gas stripping): 26.8 ± 1.6; activity coefficient (313.15 K, inert gas stripping): 30.8 ± 1.8; activity coefficient (323.15 K, inert gas stripping): 34.4 ± 2.1; activity coefficient (333.15 K, inert gas stripping): 35.7 ± 2.1; activity coefficient (353.15 K, Rayleigh distallation): 38.4 ± 2.3
